In patent US20190330224A1, “ACC INHIBITORS AND USES THEREOF” (Gilead Apollo, LLC, priority 2015, published 2019):
Values after ≈ are worked out from the molar mass of the structure shown.

Legend:
[1] = system: C. parapsilosis ATCC 22019; experiment: Anti-Fungal Activity Assay (broth microtiter MIC), C. parapsilosis; type: cell-based, Candida parapsilosis; conditions: Lodderomyces parapsilosis, ATCC22019, 48 h, 3 replicates; MIC recorded at 48 h; read-out: MIC C. parapsilosis ATCC 22019
Outline: (§1)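 Candida strains were grown from frozen stock on Sabouraud dextrose agar overnight at 35° C, then suspended directly in RPMI 1640+MOPS and quantified against standard curves. Broth microdilution MIC plates followed CLSI M27-A3; MICs were read visually against growth control at 48 h, with a 24 h read added for soraphen.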

[2] = biological target: Fungal ACC2 (UniProt Q00955); conditions: read-out: Fungal ACC2 (IC50, in vitro ACC2 inhibition)
Fungal ACC2, sequence (Q00955 whole entry): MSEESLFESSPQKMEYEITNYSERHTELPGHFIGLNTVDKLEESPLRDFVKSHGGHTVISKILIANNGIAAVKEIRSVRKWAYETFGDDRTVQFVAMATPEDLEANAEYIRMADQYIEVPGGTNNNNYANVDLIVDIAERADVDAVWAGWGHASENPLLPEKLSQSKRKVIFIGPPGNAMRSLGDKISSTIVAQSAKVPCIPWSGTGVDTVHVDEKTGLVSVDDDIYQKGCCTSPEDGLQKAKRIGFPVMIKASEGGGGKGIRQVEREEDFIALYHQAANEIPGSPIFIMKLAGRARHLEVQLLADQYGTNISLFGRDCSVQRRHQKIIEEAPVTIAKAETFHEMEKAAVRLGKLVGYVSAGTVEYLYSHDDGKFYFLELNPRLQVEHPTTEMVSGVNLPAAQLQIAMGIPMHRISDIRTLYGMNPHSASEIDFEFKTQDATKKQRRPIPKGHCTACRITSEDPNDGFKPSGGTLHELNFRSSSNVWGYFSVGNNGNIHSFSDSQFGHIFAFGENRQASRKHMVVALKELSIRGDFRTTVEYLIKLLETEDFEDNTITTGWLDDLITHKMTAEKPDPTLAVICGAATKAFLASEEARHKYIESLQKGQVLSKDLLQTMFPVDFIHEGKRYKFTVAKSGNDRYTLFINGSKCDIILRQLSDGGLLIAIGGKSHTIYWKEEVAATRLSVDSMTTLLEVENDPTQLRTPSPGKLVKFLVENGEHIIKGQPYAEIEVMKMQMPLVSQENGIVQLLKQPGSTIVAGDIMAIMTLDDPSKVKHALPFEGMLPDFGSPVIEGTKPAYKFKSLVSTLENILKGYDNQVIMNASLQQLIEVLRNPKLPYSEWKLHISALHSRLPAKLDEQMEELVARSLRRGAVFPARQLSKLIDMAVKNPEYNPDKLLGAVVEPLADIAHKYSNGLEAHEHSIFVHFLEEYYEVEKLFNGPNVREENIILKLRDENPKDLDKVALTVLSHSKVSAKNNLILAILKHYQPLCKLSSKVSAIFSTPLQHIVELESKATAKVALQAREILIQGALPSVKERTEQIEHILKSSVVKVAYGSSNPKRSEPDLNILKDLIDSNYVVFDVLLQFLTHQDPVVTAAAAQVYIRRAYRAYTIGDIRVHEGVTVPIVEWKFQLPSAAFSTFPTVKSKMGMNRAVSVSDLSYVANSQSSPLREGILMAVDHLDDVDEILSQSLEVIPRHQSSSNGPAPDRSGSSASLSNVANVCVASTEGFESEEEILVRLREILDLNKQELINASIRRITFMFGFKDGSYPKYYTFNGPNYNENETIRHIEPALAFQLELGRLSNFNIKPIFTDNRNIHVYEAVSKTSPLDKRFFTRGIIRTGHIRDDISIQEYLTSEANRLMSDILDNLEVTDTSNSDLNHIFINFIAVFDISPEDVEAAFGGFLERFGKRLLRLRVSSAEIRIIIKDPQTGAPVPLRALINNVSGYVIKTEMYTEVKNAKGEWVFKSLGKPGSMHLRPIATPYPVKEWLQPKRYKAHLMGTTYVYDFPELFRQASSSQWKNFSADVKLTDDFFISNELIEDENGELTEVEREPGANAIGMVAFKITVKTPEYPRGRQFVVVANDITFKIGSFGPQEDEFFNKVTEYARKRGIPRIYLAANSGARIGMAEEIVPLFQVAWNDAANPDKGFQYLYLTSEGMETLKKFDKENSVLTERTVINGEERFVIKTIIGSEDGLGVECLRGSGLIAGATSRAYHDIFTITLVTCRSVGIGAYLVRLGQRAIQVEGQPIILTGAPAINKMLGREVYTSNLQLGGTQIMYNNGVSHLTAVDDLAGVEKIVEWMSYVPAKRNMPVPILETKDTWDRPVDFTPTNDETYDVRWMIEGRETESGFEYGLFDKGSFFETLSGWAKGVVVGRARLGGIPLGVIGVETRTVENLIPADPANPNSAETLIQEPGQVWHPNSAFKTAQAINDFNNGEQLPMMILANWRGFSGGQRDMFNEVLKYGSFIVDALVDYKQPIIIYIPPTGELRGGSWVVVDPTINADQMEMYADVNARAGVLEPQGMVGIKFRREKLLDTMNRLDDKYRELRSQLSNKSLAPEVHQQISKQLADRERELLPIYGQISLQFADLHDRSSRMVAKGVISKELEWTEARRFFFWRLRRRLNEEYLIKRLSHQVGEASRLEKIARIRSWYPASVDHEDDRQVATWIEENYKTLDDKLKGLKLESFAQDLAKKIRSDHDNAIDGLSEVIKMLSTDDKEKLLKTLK

[3] = biological target: Human ACC2 (Homo sapiens, UniProt O00763); experiment: In vitro ACC2 inhibition assay (ADP-Glo), human ACC2; type: biochemical; conditions: 5 nM ACC2, 20 μM ATP, 20 μM acetyl-CoA
Human ACC2, sequence (O00763 whole entry): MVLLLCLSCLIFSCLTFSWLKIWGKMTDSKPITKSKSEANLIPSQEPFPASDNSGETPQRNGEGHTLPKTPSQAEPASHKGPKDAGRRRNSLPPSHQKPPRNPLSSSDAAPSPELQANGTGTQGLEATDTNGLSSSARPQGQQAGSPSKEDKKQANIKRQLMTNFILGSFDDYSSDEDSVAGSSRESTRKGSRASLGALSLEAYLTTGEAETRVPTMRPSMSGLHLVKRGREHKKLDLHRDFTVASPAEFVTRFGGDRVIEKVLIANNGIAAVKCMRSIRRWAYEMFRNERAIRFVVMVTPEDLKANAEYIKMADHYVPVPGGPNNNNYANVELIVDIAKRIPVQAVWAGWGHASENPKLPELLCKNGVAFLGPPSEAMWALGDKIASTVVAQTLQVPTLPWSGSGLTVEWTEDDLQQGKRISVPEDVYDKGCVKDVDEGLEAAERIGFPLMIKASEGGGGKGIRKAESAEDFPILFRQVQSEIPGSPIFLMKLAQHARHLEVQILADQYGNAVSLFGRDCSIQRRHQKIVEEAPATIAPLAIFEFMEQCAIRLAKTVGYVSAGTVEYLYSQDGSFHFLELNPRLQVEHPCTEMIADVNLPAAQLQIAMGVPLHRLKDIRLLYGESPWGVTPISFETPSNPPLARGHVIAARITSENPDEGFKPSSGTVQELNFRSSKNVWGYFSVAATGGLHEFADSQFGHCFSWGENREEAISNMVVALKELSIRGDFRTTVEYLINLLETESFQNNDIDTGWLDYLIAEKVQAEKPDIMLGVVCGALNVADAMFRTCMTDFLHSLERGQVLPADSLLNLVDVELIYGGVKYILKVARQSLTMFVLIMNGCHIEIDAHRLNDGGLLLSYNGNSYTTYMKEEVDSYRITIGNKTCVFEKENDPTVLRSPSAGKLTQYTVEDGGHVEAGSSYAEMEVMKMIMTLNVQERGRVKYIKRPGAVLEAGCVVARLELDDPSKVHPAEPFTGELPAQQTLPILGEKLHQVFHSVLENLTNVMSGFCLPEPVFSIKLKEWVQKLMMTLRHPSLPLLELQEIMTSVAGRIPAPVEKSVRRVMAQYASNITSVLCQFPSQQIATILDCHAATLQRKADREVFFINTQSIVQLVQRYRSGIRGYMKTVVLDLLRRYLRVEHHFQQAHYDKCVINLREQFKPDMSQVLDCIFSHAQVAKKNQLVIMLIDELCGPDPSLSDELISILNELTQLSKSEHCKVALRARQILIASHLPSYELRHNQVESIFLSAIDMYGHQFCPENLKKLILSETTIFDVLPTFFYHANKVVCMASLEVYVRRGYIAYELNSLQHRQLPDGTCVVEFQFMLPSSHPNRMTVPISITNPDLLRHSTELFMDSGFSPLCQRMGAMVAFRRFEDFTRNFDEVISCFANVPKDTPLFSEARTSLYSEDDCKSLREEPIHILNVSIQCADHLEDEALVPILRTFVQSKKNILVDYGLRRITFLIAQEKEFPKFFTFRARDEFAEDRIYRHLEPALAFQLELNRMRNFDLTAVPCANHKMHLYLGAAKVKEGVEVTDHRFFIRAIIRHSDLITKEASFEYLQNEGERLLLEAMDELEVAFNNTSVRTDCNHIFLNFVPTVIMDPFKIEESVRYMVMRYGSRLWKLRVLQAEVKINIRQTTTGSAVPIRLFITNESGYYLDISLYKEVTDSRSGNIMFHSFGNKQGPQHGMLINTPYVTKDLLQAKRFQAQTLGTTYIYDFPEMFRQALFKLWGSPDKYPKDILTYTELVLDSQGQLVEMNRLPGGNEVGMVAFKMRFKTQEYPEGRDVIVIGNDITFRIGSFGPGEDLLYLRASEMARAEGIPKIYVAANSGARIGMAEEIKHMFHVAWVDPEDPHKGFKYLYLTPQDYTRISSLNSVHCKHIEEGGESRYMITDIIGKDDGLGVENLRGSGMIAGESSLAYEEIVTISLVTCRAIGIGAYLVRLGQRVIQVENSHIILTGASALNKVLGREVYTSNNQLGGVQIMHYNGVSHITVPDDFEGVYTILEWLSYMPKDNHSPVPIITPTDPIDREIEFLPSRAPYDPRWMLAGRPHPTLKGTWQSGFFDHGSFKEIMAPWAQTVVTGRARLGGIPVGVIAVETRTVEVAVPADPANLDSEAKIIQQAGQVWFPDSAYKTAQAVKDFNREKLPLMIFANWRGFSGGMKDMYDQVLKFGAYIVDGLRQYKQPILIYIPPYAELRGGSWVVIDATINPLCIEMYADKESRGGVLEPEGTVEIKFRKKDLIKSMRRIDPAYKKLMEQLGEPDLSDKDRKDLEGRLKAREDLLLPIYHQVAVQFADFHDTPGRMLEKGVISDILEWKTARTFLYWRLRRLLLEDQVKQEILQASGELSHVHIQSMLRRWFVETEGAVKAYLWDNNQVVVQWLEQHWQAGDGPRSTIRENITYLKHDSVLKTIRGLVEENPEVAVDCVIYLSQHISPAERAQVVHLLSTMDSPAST

[4] = system: C. krusei ATCC 6258; experiment: Anti-Fungal Activity Assay (broth microtiter MIC), C. krusei; type: cell-based, Candida krusei; conditions: Pichia kudriavzevii, ATCC6258, 48 h, 3 replicates; MIC recorded at 48 h; read-out: MIC C. krusei ATCC 6258
Outline: as §1

[5] = system: C. albicans ATCC 90028; experiment: Anti-Fungal Activity Assay (broth microtiter MIC), C. albicans; type: cell-based, Candida albicans; conditions: Candida albicans, ATCC90028, 48 h, 3 replicates; MIC recorded at 48 h; read-out: MIC C. albicans ATCC 90028
Outline: as §1

## COCCO[C@@H](Cn1c(=O)n([C@@H]2CNC(=O)C2)c(=O)c2c(C)c(-n3nccn3)sc21)c1cc(F)ccc1OC [Compound I-90, 1-((R)-2-(5-fluoro-2-methoxyphenyl)-2-(2-methoxy-ethoxy)ethyl)-5-methyl-3-((S)-5-oxopyrrolidin-3-yl)-6-(2H-1,2,3-triazol-2-yl)thieno[2,3-d]pyrimidine-2,4(1H,3H)-dione]
[1]
  MIC: 2.1 to 4 µg/mL (≈ 3.76 to 7.16 µM)
[2]
  IC50: 0.7 to 2 nM
[3]
  IC50: 2 to 10 nM
[4]
  MIC: 2.1 to 4 µg/mL (≈ 3.76 to 7.16 µM)
[5]
  MIC: 2.1 to 4 µg/mL (≈ 3.76 to 7.16 µM)

## COc1ccc(F)cc1[C@H](Cn1c(=O)n([C@@H]2CNC(=O)C2)c(=O)c2c(C)c(-n3nccn3)sc21)OCCO [Compound I-91, 1-((R)-2-(5-fluoro-2-methoxyphenyl)-2-(2-hydroxy-ethoxy)ethyl)-5-methyl-3-((S)-5-oxopyrrolidin-3-yl)-6-(2H-1,2,3-triazol-2-yl)thieno[2,3-d]pyrimidine-2,4(1H,3H)-dione]
[1]
  MIC: 2.1 to 4 µg/mL (≈ 3.86 to 7.35 µM)
[2]
  IC50: 0.7 to 2 nM
[3]
  IC50: 2 to 10 nM
[4]
  MIC: 2.1 to 4 µg/mL (≈ 3.86 to 7.35 µM)
[5]
  MIC: 2.1 to 4 µg/mL (≈ 3.86 to 7.35 µM)

## COCCO[C@@H](Cn1c(=O)n([C@@H]2CC(=O)N(C)C2)c(=O)c2c(C)c(-n3nccn3)sc21)c1cc(F)ccc1OC [Compound I-92, 1-((R)-2-(5-fluoro-2-methoxyphenyl)-2-(2-methoxy-ethoxy)ethyl)-5-methyl-3-((R)-1-methyl-5-oxopyrrolidin-3-yl)-6-(2H-1,2,3-triazol-2-yl)thieno[2,3-d]pyrimidine-2,4(1H,3H)-dione]
[1]
  MIC: 2.1 to 4 µg/mL (≈ 3.67 to 6.99 µM)
[2]
  IC50: 0.7 to 2 nM
[3]
  IC50: 10 to 100 nM
[4]
  MIC: 2.1 to 4 µg/mL (≈ 3.67 to 6.99 µM)
[5]
  MIC: 2.1 to 4 µg/mL (≈ 3.67 to 6.99 µM)

## COc1ccc(F)cc1[C@H](Cn1c(=O)n([C@@H]2CC(=O)N(C)C2)c(=O)c2c(C)c(-n3nccn3)sc21)OCCO [Compound I-93, 1-((R)-2-(5-fluoro-2-methoxyphenyl)-2-(2-hydroxy-ethoxy)ethyl)-5-methyl-3-((R)-1-methyl-5-oxopyrrolidin-3-yl)-6-(2H-1,2,3-triazol-2-yl)thieno[2,3-d]pyrimidine-2,4(1H, 3H)-dione]
[1]
  MIC: 2.1 to 4 µg/mL (≈ 3.76 to 7.16 µM)
[2]
  IC50: 0.7 to 2 nM
[3]
  IC50: 2 to 10 nM
[4]
  MIC: 2.1 to 4 µg/mL (≈ 3.76 to 7.16 µM)
[5]
  MIC: 2.1 to 4 µg/mL (≈ 3.76 to 7.16 µM)

## COCCO[C@@H](Cn1c(=O)n([C@H]2CC(=O)N(C)C2)c(=O)c2c(C)c(-n3nccn3)sc21)c1cc(F)ccc1OC [Compound I-94, 1-((R)-2-(5-fluoro-2-methoxyphenyl)-2-(2-methoxy-ethoxy)ethyl)-5-methyl-3-((S)-1-methyl-5-oxopyrrolidin-3-yl)-6-(2H-1,2,3-triazol-2-yl)thieno[2,3-d]pyrimidine-2,4(1H, 3H)-dione]
[1]
  MIC: 2.1 to 4 µg/mL (≈ 3.67 to 6.99 µM)
[2]
  IC50: 0.7 to 2 nM
[3]
  IC50: 2 to 10 nM
[4]
  MIC: 2.1 to 4 µg/mL (≈ 3.67 to 6.99 µM)
[5]
  MIC: 2.1 to 4 µg/mL (≈ 3.67 to 6.99 µM)

## COc1ccc(F)cc1[C@H](Cn1c(=O)n([C@H]2CC(=O)N(C)C2)c(=O)c2c(C)c(-n3nccn3)sc21)OCCO [Compound I-95, 1-((R)-2-(5-fluoro-2-methoxyphenyl)-2-(2-hydroxy-ethoxy)ethyl)-5-methyl-3-((S)-1-methyl-5-oxopyrrolidin-3-yl)-6-(2H-1,2,3-triazol-2-yl)thieno[2,3-d]pyrimidine-2,4(1H,3H)-dione]
[1]
  MIC: 2.1 to 4 µg/mL (≈ 3.76 to 7.16 µM)
[2]
  IC50: 2 to 10 nM
[3]
  IC50: 2 to 10 nM
[4]
  MIC: 2.1 to 4 µg/mL (≈ 3.76 to 7.16 µM)
[5]
  MIC: 2.1 to 4 µg/mL (≈ 3.76 to 7.16 µM)

## COCCO[C@@H](Cn1c(=O)n([C@H]2CCN(C(=O)C(C)C)C2)c(=O)c2c(C)c(-n3nccn3)sc21)c1cc(F)ccc1OC [Compound I-96, 1-((R)-2-(5-fluoro-2-methoxyphenyl)-2-(2-methoxy-ethoxy)ethyl)-3-((S)-1-isobutyrylpyrrolidin-3-yl)-5-methyl-6-(2H-1,2,3-triazol-2-yl)thieno[2,3-d]pyrimidine-2,4(1H,3H)-dione]
[1]
  MIC: 2.1 to 4 µg/mL (≈ 3.42 to 6.51 µM)
[2]
  IC50: 2 to 10 nM
[3]
  IC50: 10 to 100 nM
[4]
  MIC: 2.1 to 4 µg/mL (≈ 3.42 to 6.51 µM)
[5]
  MIC: 2.1 to 4 µg/mL (≈ 3.42 to 6.51 µM)

## COc1ccc(F)cc1[C@H](Cn1c(=O)n([C@H]2CCN(C(=O)C(C)C)C2)c(=O)c2c(C)c(-n3nccn3)sc21)OCCO [Compound I-97, 1-((R)-2-(5-fluoro-2-methoxyphenyl)-2-(2-hydroxy-ethoxy)ethyl)-3-((S)-1-isobutyrylpyrrolidin-3-yl)-5-methyl-6-(2H-1,2,3-triazol-2-yl)thieno[2,3-d]pyrimidine-2,4(1H,3H)-dione]
[1]
  MIC: 2.1 to 4 µg/mL (≈ 3.5 to 6.66 µM)
[2]
  IC50: 0.7 to 2 nM
[3]
  IC50: 10 to 100 nM
[4]
  MIC: 2.1 to 4 µg/mL (≈ 3.5 to 6.66 µM)
[5]
  MIC: 2.1 to 4 µg/mL (≈ 3.5 to 6.66 µM)

## COCCO[C@@H](Cn1c(=O)n(CCN2CCCCC2=O)c(=O)c2c(C)c(-n3nccn3)sc21)c1cc(F)ccc1OC [Compound I-98, (R)-1-(2-(S-fluoro-2-methoxyphenyl)-2-(2-methoxy-ethoxy)ethyl)-5-methyl-3-(2-(2-oxopiperidin-1-yl)ethyl)-6-(2H-1,2,3-triazol-2-yl)thieno[2,3-d]pyrimidine-2,4(1H3H)-dione]
[1]
  MIC: 2.1 to 4 µg/mL (≈ 3.5 to 6.66 µM)
[2]
  IC50: 2 to 10 nM
[3]
  IC50: 10 to 100 nM
[4]
  MIC: 2.1 to 4 µg/mL (≈ 3.5 to 6.66 µM)
[5]
  MIC: 2.1 to 4 µg/mL (≈ 3.5 to 6.66 µM)

## COCCO[C@@H](Cn1c(=O)n(CCN2CCCC2=O)c(=O)c2c(C)c(-n3nccn3)sc21)c1cc(F)ccc1OC [Compound I-99, (R)-1-(2-(5-fluoro-2-methoxyphenyl)-2-(2-methoxy-ethoxy)ethyl)-5-methyl-3-(2-(2-oxopyrrolidin-1-yl)ethyl)-6-(2H-1,2,3-triazol-2-yl)thieno[2,3-d]pyrimidine-2,4(1H,3H)-dione]
[1]
  MIC: 2.1 to 4 µg/mL (≈ 3.58 to 6.82 µM)
[2]
  IC50: 0.7 to 2 nM
[3]
  IC50: 10 to 100 nM
[4]
  MIC: 2.1 to 4 µg/mL (≈ 3.58 to 6.82 µM)
[5]
  MIC: 2.1 to 4 µg/mL (≈ 3.58 to 6.82 µM)

## COCCO[C@@H](Cn1c(=O)n(CCN2CCCNC2=O)c(=O)c2c(C)c(-n3nccn3)sc21)c1cc(F)ccc1OC [Compound I-100, (R)-1-(2-(5-fluoro-2-methoxyphenyl)-2-(2-methoxy-ethoxy)ethyl)-5-methyl-3-(2-(2-oxotetrahydropyrimidin-1 (2H)-yl)ethyl)-6-(2H-1,2,3-triazol-2-yl)thieno[2,3-d]pyrimidine-2,4(1H,3H)-dione]
[1]
  MIC: 2.1 to 4 µg/mL (≈ 3.49 to 6.65 µM)
[2]
  IC50: 2 to 10 nM
[3]
  IC50: 10 to 100 nM
[4]
  MIC: 2.1 to 4 µg/mL (≈ 3.49 to 6.65 µM)
[5]
  MIC: 2.1 to 4 µg/mL (≈ 3.49 to 6.65 µM)

## COCCO[C@@H](COc1nc2sc(-n3nccn3)c(C)c2c(=O)n1[C@@H]1CCN(C(=O)C(C)C)C1)c1cc(F)ccc1OC [Compound I-101, 2-((R)-2-(5-fluoro-2-methoxyphenyl)-2-(2-methoxy-ethoxy)ethoxy)-3-((R)-1-isobutyrylpyrrolidin-3-yl)-5-methyl-6-(2H-1,2,3-triazol-2-yl)thieno[2,3-d]pyrimidin-4(3H)-one]
[1]
  MIC: 2.1 to 4 µg/mL (≈ 3.42 to 6.51 µM)
[2]
  IC50: 10 to 100 nM
[3]
  IC50: > 1000 nM
[4]
  MIC: 2.1 to 4 µg/mL (≈ 3.42 to 6.51 µM)
[5]
  MIC: 2.1 to 4 µg/mL (≈ 3.42 to 6.51 µM)

## COc1ccc(F)cc1[C@H](COc1nc2sc(-n3nccn3)c(C)c2c(=O)n1[C@H]1CNC(=O)C1)OCCO [Compound I-102, 2-((R)-2-(5-fluoro-2-methoxyphenyl)-2-(2-hydroxy-ethoxy)ethoxy)-5-methyl-3-((R)-5-oxopyrrolidin-3-yl)-6-(2H-1,2,3-triazol-2-yl)thieno[2,3-d]pyrimidin-4(3H)-one]
[1]
  MIC: 2.1 to 4 µg/mL (≈ 3.86 to 7.35 µM)
[2]
  IC50: 10 to 100 nM
[3]
  IC50: > 1000 nM
[4]
  MIC: 2.1 to 4 µg/mL (≈ 3.86 to 7.35 µM)
[5]
  MIC: 2.1 to 4 µg/mL (≈ 3.86 to 7.35 µM)

## COc1ccc(F)cc1[C@H](COc1nc2sc(-n3nccn3)c(C)c2c(=O)n1[C@@H]1CNC(=O)C1)OCCO [Compound I-103, 2-((R)-2-(5-fluoro-2-methoxyphenyl)-2-(2-hydroxy-ethoxy)ethoxy)-5-methyl-3-((S)-5-oxopyrrolidin-3-yl)-6-(2H-1,2,3-triazol-2-yl)thieno[2,3-d]pyrimidin-4(3H)-one]
[1]
  MIC: 2.1 to 4 µg/mL (≈ 3.86 to 7.35 µM)
[2]
  IC50: 10 to 100 nM
[3]
  IC50: > 1000 nM
[4]
  MIC: 2.1 to 4 µg/mL (≈ 3.86 to 7.35 µM)
[5]
  MIC: 2.1 to 4 µg/mL (≈ 3.86 to 7.35 µM)
